Experimental data: US20100317850A1 (priority 2008, published 2010)

What follows are molecules tested on Aβ42 production (assay: Quantification of Aβ peptide in culture of neurons from rat fetus brain (Aβ ELISA)). Settings: Neuron, 72 h; rat primary neuronal culture (cerebral cortex, embryonic day 18 Wistar rats); medium collected three days after addition of the compound; Aβx-42 ELISA; read-out: Aβ42 production reducing effect IC50.
Type: cell-based
Procedure: Quantification of Aβ Peptide in Culture of Neurons from Rat Fetus Brain
(1) Rat Primary Neuronal Culture
Primary neuronal cultures were prepared from the cerebral cortex of embryonic day 18 Wistar rats (Charles River Japan, Yokohama, Japan). Specifically, the embryos were aseptically removed from pregnant rats under ether anesthesia. The brain was isolated from the embryo and immersed in an ice-cold L-15 medium (such as Invitrogen Corp. Cat #11415-064, Carlsbad, Calif., USA, or SIGMA L1518). The cerebral cortex was collected from the isolated brain under a stereoscopic microscope. The cerebral cortex fragments collected were enzymatically treated in an enzyme solution containing 0.25% trypsin (Invitrogen Corp. Cat #15050-065, Carlsbad, Calif., USA) and 0.01% DNase (Sigma D5025, St. Louis, Mo., USA) at 37° C. for 30 minutes to disperse the cells. Here, the enzymatic reaction was stopped by adding inactivated horse serum to the solution. The enzymatically treated solution was centrifuged at 1,500 rpm for five minutes to remove the supernatant. 5 to 10 mL of a medium was added to the resulting cell mass. Neurobasal medium (Invitrogen Corp. Cat #21103-049, Carlsbad, Calif., USA) supplemented with 2% B27 supplement (Invitrogen Corp. Cat #17504-044, Carlsbad, Calif., USA), 25 μM 2-mercaptoethanol (2-ME, WAKO Cat #139-06861, Osaka, Japan), 0.5 mM L-glutamine (Invitrogen Corp. Cat #25030-081, Carlsbad, Calif., USA), and Antibiotics-Antimycotics (Invitrogen Corp. Cat #15240-062, Carlsbad, Calif., USA) was used as the medium (Neurobasal/B27/2-ME). However, the above Neurobasal medium not supplemented with 2-ME (Neurobasal/B27) was used for the assay. The cells were redispersed by mild pipetting of the cell mass to which the medium was added. The cell dispersion was filtered through a 40-μm nylon mesh (Cell Strainer, Cat #35-2340, Becton Dickinson Labware, Franklin Lakes, N.J., USA) to remove the remaining cell mass, and thus a neuronal cell suspension was obtained. The neuronal cell suspension was diluted with the medium and then plated in a volume of 100 μL/well at an initial cell density of 5×10^5 cells/cm^2 in a 96-well polystyrene culture plate pre-coated with poly-L or D-lysine (Falcon Cat #35-3075, Becton Dickinson Labware, Franklin Lakes, N.J., USA coated with poly-L-lysine using the method shown below, or BIOCOAT™ cell environments Poly-D-lysine cell ware 96-well plate, Cat #35-6461, Becton Dickinson Labware, Franklin Lakes, N.J., USA). Poly-L-lysine coating was carried out as follows. 100 μg/mL of a poly-L-lysine (SIGMA P2636, St. Louis, Mo., USA) solution was aseptically prepared with a 0.15 M borate buffer (pH 8.5). […] of the solution was added to the 96-well polystyrene culture plate and incubated at room temperature for one or more hours or at 4° C. overnight or longer. Thereafter, the coated 96-well polystyrene culture plate was washed with sterile water four or more times, and then dried or rinsed with, for example, sterile PBS or medium, and used for cell plating. The plated cells were cultured in the culture plate at 37° C. in 5% CO2-95% air for one day. Then, the total amount of the medium was replaced with a fresh Neurobasal™/B27/2-ME medium, and then the cells were cultured for further three days.
The drug was added to the culture plate on Day 4 of culture as follows. The total amount of the medium was removed from the wells, and 180 μL/well of Neurobasal medium not containing 2-ME and containing 2% B-27 (Neurobasal/B27) was added thereto. A solution of the test compound in dimethyl sulfoxide (hereinafter abbreviated as DMSO) was diluted with Neurobasal/B27 to a concentration 10-fold higher than the final concentration. 20 μL/well of the dilution was added to and sufficiently mixed with the medium. The final DMSO concentration was 1% or less. Only DMSO was added to the control group.
The cells were cultured for three days after addition of the compound, and the total amount of the medium was collected. […]

| Compound | IC50 |
| --- | --- |
| N#Cc1cccc(-c2cccc([C@]34CN(c5cnccn5)C[C@H]3CSC(N)=N4)c2)c1 (racemic) [Example 229, (±)-3′44aR*,7aS*)-2-amino-6-pyrazin-2-yl-4a,5,6,7-tetrahydro-4H-pyrrolo[3,4-d][1,3]thiazin-7a-yl)biphenyl-3-carbonitrile] | 544 nM |
| CO[C@@H]1C[C@H]2CSC(N)=N[C@@]2(c2cc(NC(=O)c3cnc(C(F)F)cn3)ccc2F)C1 (relative stereo) [Example 93, (+)-N-[3-((4aR*,6R*,7aS*)-2-amino-6-methoxy-4a,5,6,7-tetrahydro-4H-cyclopenta[d][1,3]thiazin-7a-yl)-4-fluorophenyl]-5-difluoromethylpyrazine-2-carboxamide] | 3 nM |
| NC1=N[C@@]2(c3cc(NC(=O)c4ccc(C(F)F)cn4)ccc3F)COC[C@H]2CS1 (single isomer, unassigned) [Example 190, N-[3-((4aS*,7aS*)-2-amino-4a,5-dihydro-4H-furo[3,4-d][1,3]thiazin-7a-yl)-4-fluorophenyl]-5-difluoromethylpyridine-2-carboxamide] | 12 nM |
| NC1=N[C@@]2(c3cccc(-c4cccnc4F)c3)CN(c3ncccn3)C[C@H]2CS1 (racemic) [Example 37, (±)-(4aR*,7aS*)-7a-[3-(2-fluoropyridin-3-yl)phenyl]-6-pyrimidin-2-yl-4,4a,5,6,7,7a-hexahydropyrrolo[3,4-d][1,3]thiazin-2-ylamine] | 29 nM |
| CO[C@@H]1CC[C@]2(c3cc(NC(=O)c4cnc(C(F)F)cn4)ccc3F)N=C(N)SC[C@@H]2C1 (relative stereo) [Example 207, N-[3-((4aR*,6R*,8aS*)-2-amino-6-methoxy-4,4a,5,6,7,8-hexahydrobenzo[d][1,3]thiazin-8a-yl)-4-fluorophenyl]-5-difluoromethylpyrazine-2-carboxamide] | 3 nM |
| NC1=N[C@@]2(c3cc(NC(=O)c4ncc(Br)cn4)ccc3F)CCOC[C@H]2CS1 [Example 199] | 12 nM |
| N#Cc1ccc(C(=O)Nc2ccc(F)c([C@]34COC[C@H]3CSC(N)=N4)c2)nc1 (relative stereo) [Example 24, N-[3-((4aS*,7aS*)-2-amino-4a,5-dihydro-4H-furo[3,4-d][1,3]thiazin-7a-yl)-4-fluorophenyl]-5-cyanopyridine-2-carboxamide] | 4.3 nM |
| CC[C@H]1OC[C@]2(c3cc(NC(=O)c4ccc(C#N)cn4)ccc3F)N=C(N)SC[C@H]12 (relative stereo) [Example 49, N-[3-((4aS*,5R*,7aS*)-2-amino-5-ethyl-4a,5-dihydro-4H-furo[3,4-d][1,3]thiazin-7a-yl)-4-fluorophenyl]-5-cyanopyridine-2-carboxamide] | 0.8 nM |
| NC1=N[C@@]2(c3cc(NC(=O)c4ncc(C(F)(F)F)cc4Cl)ccc3F)CCC[C@H]2CS1 (single isomer, unassigned) [Example 184, N-[3-((4aR*,7aS*)-2-amino-4a,5,6,7-tetrahydro-4H-cyclopenta[d][1,3]thiazin-7a-yl)-4-fluorophenyl]-3-chloro-5-trifluoromethyl-pyridine-2-carboxamide] | 13 nM |
| COC[C@H]1OC[C@]2(c3cc(NC(=O)c4cnc(OC(F)F)cn4)ccc3F)N=C(N)SC[C@H]12 [Example 67, N-[3-((4aS,5S,7aS)-2-amino-5-methoxymethyl-4a,5-dihydro-4H-furo[3,4-d][1,3]thiazin-7a-yl)-4-fluorophenyl]-5-difluoromethoxy-pyrazine-2-carboxamide] | 1.4 nM |
| NC1=N[C@@]2(c3cc(NC(=O)c4ncccc4Cl)ccc3F)CCCC[C@H]2CS1 [Example 258] | 376 nM |
| NC1=N[C@@]2(c3cc(NC(=O)c4ccc(Br)cn4)ccc3F)COC[C@H]2CS1 (relative stereo) [Example 166, N-[3-((4aS*,7aS*)-2-amino-4a,5-dihydro-4H-furo[3,4-d][1,3]thiazin-7a-yl)-4-fluorophenyl]-5-bromopyridine-2-carboxamide] | 4 nM |
| NC1=N[C@@]2(c3cc(NC(=O)c4cnc(OCF)cn4)ccc3F)CCC[C@H]2CS1 (relative stereo) [Example 21, N-[3-((4aR*,7aS*)-2-amino-4a,5,6,7-tetrahydro-4H-cyclopenta[d][1,3]thiazin-7a-yl)-4-fluorophenyl]-5-fluoromethoxypyrazine-2-carboxamide] | 13 nM |
| NC1=N[C@@]2(c3cc(NC(=O)c4ncccc4C(F)(F)F)ccc3F)CCC[C@H]2CS1 (single isomer, unassigned) [Example 170, N-[3-((4aR*,7aS*)-2-amino-4a,5,6,7-tetrahydro-4H-cyclopenta[d][1,3]thiazin-7a-yl)-4-fluorophenyl]-3-trifluoromethylpyridine 2-carboxamide] | 210 nM |
| NC1=N[C@@]2(c3cc(NC(=O)c4ncccc4C(F)(F)F)ccc3F)CCCC[C@H]2CS1 [Example 261] | 277 nM |
| NC1=N[C@@]2(c3cccc(-c4cccnc4F)c3)CN(C(=O)c3ccccc3)C[C@H]2CS1 [Example 82] | 425 nM |
| NC1=N[C@@]2(c3cc(-c4cccnc4F)ccc3F)CCC[C@H]2CS1 (racemic) [Example 160, (±)-(4aR*,7aS*)-7a-[2-fluoro-5-(2-fluoropyridin-3-yl)phenyl]-4,4a,5,6,7,7a-hexahydrocyclopenta[d][1,3]thiazin-2-ylamine] | 521 nM |
| NC1=N[C@@]2(c3cc(NC(=O)c4cnc(Cl)cn4)ccc3F)CCCC[C@H]2CS1 (single isomer, unassigned) [Example 104, N-[3-((4aR*,8aS*)-2-amino-4,4a,5,6,7,8-hexahydrobenzo[d][1,3]thiazin-8a-yl)-4-fluorophenyl]-5-chloropyrazine-2-carboxamide] | 212 nM |
| CC[C@H]1OC[C@]2(c3cc(NC(=O)c4cnc(C(F)F)cn4)ccc3F)N=C(N)SC[C@H]12 (relative stereo) [Example 53, N-[3-((4aS*,5R*,7aS*)-2-amino-5-ethyl-4a,5-dihydro-4H-furo[3,4-d][1,3]thiazin-7a-yl)-4-fluorophenyl]-5-difluoromethylpyrazine-2-carboxamide] | 2 nM |
| NC1=N[C@@]2(c3cc(NC(=O)c4ncccc4F)ccc3F)CCC[C@H]2CS1 (single isomer, unassigned) [Example 171, N-[3-((4aR*,7aS*)-2-amino-4a,5,6,7-tetrahydro-4H-cyclopenta[d][1,3]thiazin-7a-yl)-4-fluorophenyl]-3-fluoropyridine-2-carboxamide] | 89 nM |
| Cc1ccc(C(=O)Nc2ccc(F)c([C@]34CCCC[C@H]3CSC(N)=N4)c2)nc1 [Example 225] | 198 nM |
| NC1=N[C@@]2(c3cc(NC(=O)c4cnc(OCC(F)(F)F)cn4)ccc3F)CCC[C@H]2CS1 (single isomer, unassigned) [Example 178, N-[3-((4aR*,7aS*)-2-amino-4a,5,6,7-tetrahydro-4H-cyclopenta[d][1,3]thiazin-7a-yl)-4-fluorophenyl]-5-(2,2,2-trifluoroethoxy)-pyrazine-2-carboxamide] | 44 nM |
| NC1=N[C@@]2(c3cc(NC(=O)c4cnc(OCF)cn4)ccc3F)CO[C@H](CF)[C@H]2CS1 [Example 75, N-[3-((4aS,5,7aS)-2-amino-5-fluoromethyl-4a,5-dihydro-4H-furo[3,4-d][1,3]thiazin-7a-yl)-4-fluorophenyl]-5-fluoromethoxypyrazine-2-carboxamide] | 3 nM |
| NC1=N[C@@]2(c3cc(NC(=O)c4ccc(Br)cn4)ccc3F)CCCC[C@H]2CS1 [Example 254] | 43 nM |
